Test results as given in patent US20060128997A1, “New method for the preparation of 1,5-bis(4-hydroxy-3-metoxy-phenyl)-penta-1,4-dien-3-one and derivatives with antitumoral properties” (priority 2003, published 2006).

Experiments:
HT-1080 = conditions: literature values (Banskota, Kimoto); unit not given; cited from earlier work
Colon L5-26 = conditions: literature values (Banskota, Kimoto); unit not given; cited from earlier work
HT29 (Colon tumor) = test: Antiproliferate test in tumoral human cells, sulforrodamina B essay; format: cell-based; conditions: HT-29
Procedure: (§1) Methodology utilized to perform the antitumoral tests:
(§2) Report of the Antiproliferate Test in Tumoral Human Cells with the Sulforrodamina B Essay
(§3) The cell lines used in the essays, described in the table 1, were maintained in recipients of 25 cm^2 (Nunc®), with 5 mL of culture medium RPMI 1640 supplemented with 5% bovine foetal serum (RPMI/SFB), at 37° C. in atmosphere of 5% of CO2 and 100% of humidity.
(§4) […] of cells in medium RPMI/SFB with 50 μg/mL of Gentamicin were inoculated in its respectives densities of inoculation, in plates of 96 compartments and incubated for 24 hours at 37° C. in atmosphere of 5% of CO2 and 100% of humidity.
After 24 hours, […] of the test substance were added in the following concentrations of 250; 25; 2.5; 0.2 μg/mL diluted in RPMI/SFB/gentamicin. In this moment the reading of one plate was performed for the determination of the T0 (cell control in the moment of the adding the samples). […]
A coloration was performed by the adding of 50 μL SRB at 0.4% (weight/volume) diluted in acetic acid at 1%, and maintained at 4° C. for 30 minutes. […] The spectrophotometric of absorbancy reading was performed in 560 nm in a micro plates lector (Labsystems Labsystems Multiskan® MCC/340).
The absorbancy averages were assessed having discounted its respective nulls and by means of the formula shown below was determined the growth inhibition (IC) of each tested sample. […]

K-562 (Leukemia) = test: as above; format: cell-based; conditions: K562
Procedure: as §1, §2, §3, §4
(§5) After 24 hours, […] of the test substance were added in the following concentrations of 250; 25; 2.5; 0.2 μg/mL diluted in RPMI/SFB/gentamicin. In this moment the reading of one plate was performed for the determination of the T0 (cell control in the moment of the adding the samples). The other plates were incubated for 48 hours After this period the experiment was paused by adding the trichlorine acetic acid to further determine the protein content by means of […] essay with the sulforrodamina B.
(§6) The stocked solutions were developed by diluting the samples in dimethyl sulfoxide (DMSO) in the concentration of 0.1 g/mL. That solution was diluted by 400 times in RPMI/SFB/gentamicina to be added in the plates of 96 compartments being obtained so the a ideal concentration of DMSO (Skehan e cols. 1990).
(§7) At the end of the test, the plates of 96 compartments were centrifuged for 3 minutes at 2000 rpm, and they were fixed with 50 μL of a solution at 50% of trichloroacetic acid (TCA) at 4° C. To complete the cellular fixation, the plates were incubated for 1 hour at 4° C.
(§8) The plates were submitted to four consecutive washes with distillated water to remore the residues of TCA, medium, SFB and secondary metabolic and maintained at room temperature until the complete drying.
(§9) A coloration was performed by the adding of 50 μL SRB at 0.4% (weight/volume) diluted in acetic acid at 1%, and maintained at 4° C. for 30 minutes. Further, they were washed by 4 consecutive times with a solution of acetic acid 1%. The residue of the washing of the solution was removed and the plates were dried again at room temperature. The colorant linked to the cellular protein was diluted with a solution of Trizma Base (Sigma®) in concentration of […] and pH 10.5 for 5 minutes in ultrasonic bath. The spectrophotometric of absorbancy reading was performed in 560 nm in a micro plates lector (Labsystems Labsystems Multiskan® MCC/340).
(§10) The absorbancy averages were assessed having discounted its respective nulls and by means of the formula shown below was determined the growth inhibition (IC) of each tested sample.
(§11) If T≧T0 but <C, the drug was cytostatic and the formula used is 100×[(T−To)/(C−T0)]
(§12) If T<T0 the drug was cytotoxic and the formula used is […]
(§13) Considering that T is the absorbency average of the treated cell C is the cell control and T0 is the cell control in the addition day.
(§14) The obtained result was subtracted from 100% so obtaining the percentage of growth inhibition. The samples were considered actives since they presented growth inhibition dependant dose higher than 50% and selective lineage, that is, the preferential activity for only one type of tumoral cell or with cytostatic and/or killer cell effect well distinguished among the cell lines.
(§15) All the assays were performed in triplicates so that the presented results make reference to a representative experiment. The standard deflection from the average was always lower than 5%.

786-0 (Renal tumor) = test: as above; format: cell-based
Procedure: as §1, §2, §3, §4, §5, §6, §7, §8, §9, §10, §11, §12, §13, §14, §15

[1] = tested on: NCIADR (Mamma tumor which expresses the phenotype resistance against multiple drugs); test: as above; format: cell-based
Procedure: as §1, §2, §3, §4, §5, §6, §7, §8, §9, §10, §11, §12, §13, §14, §15

[2] = tested on: all cell lines (nine different types of human cancer); test: Antiproliferate test, sulforrodamina B essay, whole panel of cell lines; format: cell-based; conditions: for concentration from which cytostatic activity (growth inhibition) is presented: all cell lines; for selectivity for the studied cell lines, in words: panel of cell lines
Procedure: as §1, §2, §3, §4, §5, §6, §7, §8, §9, §10, §11, §12, §13, §14, §15

| Compound | Cytotoxicity HT-1080 (HT-1080) | Cytotoxicity Colon L5-26 (Colon L5-26) | concentration with cytotoxic activity (cellular death) (HT29 (Colon tumor)) [µg/mL] | concentration with cytotoxic activity (cellular death) (K-562 (Leukemia)) [µg/mL] | concentration with cytotoxic activity (cellular death) (786-0 (Renal tumor)) [µg/mL] | concentration with cytotoxic activity (cellular death) ([1]; NCIADR) [µg/mL] | concentration from which cytostatic activity (growth inhibition) is presented [2] [µg/mL] | selectivity for the studied cell lines, in words [2] | growth inhibition ([1]; NCI-ADR cell line, concentration not clearly stated (from 25 μg/mL)) | concentration from which cytotoxic / killer cell activity (cellular death) is presented ([2]; all cell lines of the panel) [µg/mL] |
| --- | --- | --- | --- | --- | --- | --- | --- | --- | --- | --- |
| CC(C)=CCc1cc(C=CC(=O)O)cc2c1OC(C)(C)C=C2 [Compound 2, 2,2-dimethyl-8-prenyl-2H-1-benzopyranbenzopyrene-6-yl-2-propenoic acid] | 46.86 | 50.22 | – | – | – | – | – | – | – | – |
| COc1cc(C=CC(=O)C=Cc2ccc(OCC=C(C)C)c(OC)c2)ccc1OCC=C(C)C [HB6, 1,5-Bis[3-metoxy-4-(3-methyl-but-2-eniloxy)phenyl]-penta-1,4-dien-3-one] | – | – | 250 | 250 | 250 | 250 | ≥ 25 | cellular selectivity for HT-29 and 786-0 cell lines | – | – |
| COc1cc(C=CC(=O)C=Cc2ccc(OC(C)=O)c(OC)c2)ccc1OC(C)=O [EHB1, 1,5-bis(3-metoxy-4-acetoxyphenyl)-penta-1,4-dien-3-one] | – | – | – | – | – | – | ≥ 0.25 | not selective | around 25% | ≥ 25 |
| CC(C)=CCc1cc(C=CC(=O)O)ccc1OC(=O)CCc1ccccc1 [Compound 4, 4-dihydrocinnamoyloxy-3-prenylcinnamic acid] | 25.94 | 77.90 | – | – | – | – | – | – | – | – |
